Peptide text beside a SMILES is read from it. * marks the point of attachment. Benzoyl(4-SO2NH2) = NS(=O)(=O)c1ccc(C(=O)*)cc1
B1: 75 (protein)
chain: EWGYASHNGPDHWHELFPNAKGENQSPIELHTKDIRHDPSLQPWSVSYDGGSAKTILNNGKTLGVVFDDTYDRSMLRGGPLPGPYRLREFHLHWGSSDDHGSEHTVDGVKYAAELHLLHWNPKYNTFKEALKQRDGLAVIGIFLKIGHENGEFQIFLDALDKIKTKGKEAPFTKFDPSSLFPASRDYWTYQGSMTIPPLMEAVVWLLLKEPMTVSSDQMAKLRSLLSSAENEPPVPLVSNWRPPQPINNRVVRASFK
modifications: Synthetic binder, S279_0004

Columns and labels:
[1] = molecular target: wild-type hCAII protein (Homo sapiens, UniProt P00918); test: colorimetric IC50 assay of NTMs and NTM-AAEIR peptides; assay type: biochemical; conditions: for Fold Enhancement (NTM IC50) / Fold Enhancement (NTM-AAEIR IC50): relative to NTM M64; for Fold Enhancement (NTM-AAEIR IC50): NTM on AAEIR
Experimental: The colorimetric assay used 300 nM of wild-type carbonic anhydrase incubated in 45 μL of 50 mM MOPS (pH 7.5), 33 mM Na2SO4, and 1 mM EDTA aliquoted into a 96-well, clear, flat-bottom plate. To each column of the plate, a 1/10 dilution series from 1 mM to 0.1 nM of each NTM was added and incubated at 25° C. for 10 minutes to reach binding equilibrium. […] The initial rate of hydrolysis was observed over the first 60 seconds. The slopes versus the concentration of NTM were put into a non-linear regression equation to determine the IC50 of the NTM to the carbonic anhydrase.

[2] = molecular target: human carbonic anhydrase II (hCAII) (Homo sapiens, UniProt P00918); test: hCAII functional assay (pNP-OAc hydrolysis) with SABA-modified peptides; assay type: biochemical
Experimental: A functional assay for hCAII enzyme was set up. Carbonic anhydrase catalyzes the hydrolysis of 4-nitrophenyl acetate (4-NPA) to nitrophenol, which can be monitored by absorbance at 400 nm. The enzymatic carbonic anhydrase assay generally includes 0.2-1.0 μM enzyme and 10-500 μM 4-NPA in 20-200 μL in assay buffer. […] Metal chelating agents (EDTA or EGTA), salt (NaCl, sulfate), detergent (Tween or Triton), and organic additives (acetonitrile, DMSO) may be employed to facilitate enzyme stability and reagent solubility. For the assay, 1 μM human carbonic anhydrase II, 50 mM MOPS (pH 7.6), 33 mM disodium sulfate, and 1 mM EDTA. To generate NTM-modified peptides, azide-derivatized peptides (via azide-PEG-amine and carbodiimide coupling to C-terminus of peptide) were conjugated to DBCO-coupled beads. […] To evaluate P1 dependence of the binding reaction, multiple P1 residues has been tested.

[3] = molecular target: biotinylated peptides M64-P1-P2-ΔK-(PEG9)(PEG9)-K(Biotin); test: bio-layer interferometry (BLI) of engineered binders; assay type: binding; conditions: M64 peptide, 22° C.
Experimental: Bio-layer interferometry (BLI) is an optical analytical and label-free method to directly measure kinetics between two biomolecules. In this technology, one biomolecule is immobilized on a surface in the form of a small tip, this tip is then dipped in a microplate containing the second biomolecule of interest. White light is directed down the tip to the tip surface where the binding is measured as a shift in wavelength that is caused as a result of the interference between incident and reflected light. More specifically, there are two surfaces at the tip, a reference layer and the experiment layer, the latter is where the biomolecules immobilize and bind. As the distance between these two layers increases due to biomolecules binding and immobilizing, the shift between incident and reflected wavelengths increases as caused by the light waves interfering at the two layers. Therefore, the size and the number of biomolecules that bind onto the surface is proportional to the shift measured. This shift is plotted against time to give a sensogram from which kon, koff and ultimately KD can be calculated.
All binding experiments were carried out on an 8-channel Gator Prime (Gator Bio) instrument. To measure the affinity of each binder-peptide pair, biotinylated peptides were immobilized on Streptavidin coated biosensor tips (Gator Bio), which were dipped in six binder concentrations and two controls. All binding assays were performed at 22° C. in 96 well polypropylene plates (Gator Bio) and carried out in triplicates with a well volume of 200 uL. Streptavidin coated biosensors were hydrated in the baseline buffer for 10 mins before each assay. All binding experiments used biotinylated peptides with the following sequence construct, M64-P1-P2-ΔK-(PEG9)(PEG9)-K(Biotin) and all peptides were diluted in the baseline buffer. Binders having sequences set forth in SEQ ID NO: 75-SEQ ID NO: 82 were tested. The binders originated from three different metalloenzyme scaffolds and were engineered according to the methods disclosed in Examples 4-6. […] All binders were serially diluted using the baseline buffer either by 2- or 3-fold. Baseline buffer consisted of 50 mM MOPS pH 7.5, 33 mM NaSO4, 1 mM EDTA and 0.1% Tween-20. The following protocol was used for each binding assay under shaker speed of 1000 rpm, which generated the best quality binding with minimal sensor to sensor variation and baseline drift (Table 14).
Between each binding assay, if biosensors were used more than once, the following protocol was used to regenerate the biosensor for subsequent binding assays (Table 15). Regeneration buffer consisted of […] and 10 mM Glycine pH 2.0.
Analysis of binding curves. […] Binding curves were aligned to the association step and subtracted using the reference curve. Each set of processed curves were then fit locally and inspected. The residual plot, R2 and Chi2 were examined to be <0.1 nm, […] and <3 nm respectively. […] Next, the qualifying curves were filled globally and the kinetic parameters kobs, kon, koff and KD were calculated along with their errors. The errors were inspected to be less than […] of its calculated value. Finally, the theoretical shift at equilibrium from the qualifying curves were filled on a steady state plot, and the KD and Rmax (theoretical maximum binding capacity in nm) were calculated from that curve. The kinetic parameters of exemplary generated binders (having sequences set forth in SEQ ID NO: 75-SEQ ID NO: 82) with their respective targets (indicated as P1 residue of immobilized peptides) are shown in Table 16.

[4] = 1 μM hCAII, 500 μM pNP-OAc, 10 minutes at 37° C., pNP release over 180 s

Molecule	Fold Enhancement (NTM IC50) [1]	Fold Enhancement (NTM-AAEIR IC50) [1]	other results
NS(=O)(=O)c1ccc(C(=O)O)cn1 [M65, 6-Sulfamoylpyridine-3-carboxylic acid]	2.2	0.3	
NS(=O)(=O)c1ccc(C(=O)O)c([N+](=O)[O-])c1 [M67, 2Nitro-4-sulfamoylbenzoic acid]	3.8	2.0	
NS(=O)(=O)c1ccc(C(=O)O)cc1F [M88, 3-Fluoro-4-sulfamoylbenzoic acid]	4.3	1.6	
NS(=O)(=O)c1ccc(C(=O)O)c(F)c1 [M75, 2-Fluoro-4-sulfamoylbenzoic acid]	2.1	2.2	
C[C@H](NC(=O)c1ccc(S(N)(=O)=O)cc1)C(=O)N[C@@H](C)C(=O)N[C@@H](C)C(=O)N[C@@H](C)C(=O)N[C@@H](CCC(=O)O)C(N)=O [(SAB)AAAAE] ({Benzoyl(4-SO2NH2)}-AAAAE-NH2)			IC50 ([2]; SABA-P1-P2 groups): 48 nM
C[C@H](NC(=O)c1ccc(S(N)(=O)=O)cc1)C(=O)N[C@@H](Cc1ccccc1)C(=O)N[C@@H](C)C(=O)N[C@@H](C)C(=O)N[C@@H](CCC(=O)O)C(N)=O [(SAB)AFAAE] ({Benzoyl(4-SO2NH2)}-AFAAE-NH2)			IC50 [2, 4]: 183 nM; IC50 ([2]; SABA-P1-P2 groups): 183 nM
Cc1cc(S(N)(=O)=O)ccc1C(=O)O [M74, 2-methyl-4 sulfamoylbenzoic acid]	0.2		
NS(=O)(=O)c1ccc(C(=O)O)nc1 [M66]	0.5		IC50 ([1]; free NTM, 300 nM wild-type carbonic anhydrase, 1 mM pNPA, 25° C.): 992 nM
Nc1cc(S(N)(=O)=O)ccc1C(=O)O [2-NH2, 2-Amino-4-sulfamoylbenzoic acid]	0.3		
COc1cc(S(N)(=O)=O)ccc1C(=O)O [M73, 2-Methoxy-4-sulfarnoylbenzoic acid]	0.0		
C[C@H](NC(=O)[C@H](C)NC(=O)[C@H](Cc1ccccc1)NC(=O)c1ccc(S(N)(=O)=O)cc1)C(=O)N[C@@H](C)C(=O)N[C@@H](CCC(=O)O)C(N)=O [(SAB)FAAAE] ({Benzoyl(4-SO2NH2)}-FAAAE-NH2)			IC50 [2, 4]: 45 nM; IC50 ([2]; SABA-P1-P2 groups): 45 nM
NS(=O)(=O)c1ccc(C(=O)O)c(Cl)c1 [M76, 2-Chloro-4-sulfamoylbenzoic acid]	2.6	1.9	
B1			Kd ([3]; P1 = T): 488 nM; koff ([3]; P1 = T): 0.0111 s⁻¹; kon ([3]; P1 = T): 23300 M⁻¹ s⁻¹; Kd ([3]; P1 = V): 20 nM; koff ([3]; P1 = V): 0.000473 s⁻¹; kon ([3]; P1 = V): 23700 M⁻¹ s⁻¹

Source: US12467928B2, “N-terminal modifier agents and binders for treating and analyzing peptides” (Encodia, Inc., priority 2023, dated 2025)
